Here are results for six molecules from PubChem BioAssay AID1259407 (Chemical Carcinogenesis Research Information System (CCRIS), 2018).

Activity calls are given as the source filed them. How the calls were made is not given here.

This data set deals with CCRIS mutagenicity, Ames/micronucleus/aberration tests. The data set is described as follows: CCRIS mutagenicity studies.
Setting [1] is: Test System: AMES SALMONELLA TYPHIMURIUM, Strain/Indicator: TA98, Metabolic Activation: NONE, Method: STANDARD PLATE.
[2] abbreviates: Test System: AMES SALMONELLA TYPHIMURIUM, Strain/Indicator: TA98, Metabolic Activation: RAT, LIVER, S-9, AROCLOR 1254, Method: STANDARD PLATE.
Setting [3] is: Test System: AMES SALMONELLA TYPHIMURIUM, Strain/Indicator: TA100, Metabolic Activation: NONE, Method: STANDARD PLATE.
Setting [4] is: Test System: AMES SALMONELLA TYPHIMURIUM, Strain/Indicator: TA100, Metabolic Activation: RAT, LIVER, S-9, AROCLOR 1254, Method: STANDARD PLATE.
[5] abbreviates: Test System: AMES SALMONELLA TYPHIMURIUM, Strain/Indicator: TA1538, Metabolic Activation: NONE, Method: STANDARD PLATE.
The mark [6] stands for this setting: Test System: AMES SALMONELLA TYPHIMURIUM, Strain/Indicator: TA1538, Metabolic Activation: RAT, LIVER, S-9, AROCLOR 1254, Method: STANDARD PLATE.

For the molecule `N`, the mutagenic call reads like this: (End Point: IN VIVO MICRONUCLEUS, Test System: BONE MARROW POLYCHROMATIC ERYTHROCYTES, Species: MOUSE, Strain/Sex: DDY/MALE, Route: IP) “inactive; negative”; (Test System: AMES SALMONELLA TYPHIMURIUM, Strain/Indicator: TA98, Metabolic Activation: NONE) “inactive; negative”; (Test System: AMES SALMONELLA TYPHIMURIUM, Strain/Indicator: TA98, Metabolic Activation: NONE, Method: PREINCUBATION) “inactive; negative”; (Test System: AMES SALMONELLA TYPHIMURIUM, Strain/Indicator: TA98, Metabolic Activation: RAT, LIVER, S-9, KC 500) “inactive; negative”; (Test System: AMES SALMONELLA TYPHIMURIUM, Strain/Indicator: TA98, Metabolic Activation: RAT, LIVER, S-9, KC 500, Method: PREINCUBATION) “inactive; negative”; (Test System: AMES SALMONELLA TYPHIMURIUM, Strain/Indicator: TA100, Metabolic Activation: NONE) “inactive; negative”. Further, the mutagenic call (Test System: AMES SALMONELLA TYPHIMURIUM, Strain/Indicator: TA100, Metabolic Activation: NONE, Method: PREINCUBATION) was “inactive; negative”; the mutagenic call (Test System: AMES SALMONELLA TYPHIMURIUM, Strain/Indicator: TA100, Metabolic Activation: RAT, LIVER, S-9, KC 500) was “inactive; negative”; the mutagenic call (Test System: AMES SALMONELLA TYPHIMURIUM, Strain/Indicator: TA100, Metabolic Activation: RAT, LIVER, S-9, KC 500, Method: PREINCUBATION) was “inactive; negative”; the mutagenic call (Test System: AMES SALMONELLA TYPHIMURIUM, Strain/Indicator: TA1535, Metabolic Activation: NONE) is “inactive; negative”; the mutagenic call (Test System: AMES SALMONELLA TYPHIMURIUM, Strain/Indicator: TA1535, Metabolic Activation: NONE, Method: PREINCUBATION) is “inactive; negative”; the mutagenic call (Test System: AMES SALMONELLA TYPHIMURIUM, Strain/Indicator: TA1535, Metabolic Activation: RAT, LIVER, S-9, KC 500) was “inactive; negative”. The mutagenic call was “inactive; negative” (Test System: AMES SALMONELLA TYPHIMURIUM, Strain/Indicator: TA1535, Metabolic Activation: RAT, LIVER, S-9, KC 500, Method: PREINCUBATION); “inactive; negative” (Test System: AMES SALMONELLA TYPHIMURIUM, Strain/Indicator: TA1537, Metabolic Activation: NONE); “inactive; negative” (Test System: AMES SALMONELLA TYPHIMURIUM, Strain/Indicator: TA1537, Metabolic Activation: NONE, Method: PREINCUBATION); “inactive; negative” (Test System: AMES SALMONELLA TYPHIMURIUM, Strain/Indicator: TA1537, Metabolic Activation: RAT, LIVER, S-9, KC 500); “inactive; negative” (Test System: AMES SALMONELLA TYPHIMURIUM, Strain/Indicator: TA1537, Metabolic Activation: RAT, LIVER, S-9, KC 500, Method: PREINCUBATION); “inactive; negative” (Test System: AMES SALMONELLA TYPHIMURIUM, Strain/Indicator: TA1538, Metabolic Activation: NONE). Besides, the mutagenic call reads like this: (Test System: AMES SALMONELLA TYPHIMURIUM, Strain/Indicator: TA1538, Metabolic Activation: NONE, Method: PREINCUBATION) “inactive; negative”; (Test System: AMES SALMONELLA TYPHIMURIUM, Strain/Indicator: TA1538, Metabolic Activation: RAT, LIVER, S-9, KC 500) “inactive; negative”; (Test System: AMES SALMONELLA TYPHIMURIUM, Strain/Indicator: TA1538, Metabolic Activation: RAT, LIVER, S-9, KC 500, Method: PREINCUBATION) “inactive; negative”; (Test System: E. COLI, Strain/Indicator: WP2 UVRA, Metabolic Activation: NONE) “inactive; negative”; (Test System: E. COLI, Strain/Indicator: WP2 UVRA, Metabolic Activation: NONE, Method: PREINCUBATION) “inactive; negative”; (Test System: E. COLI, Strain/Indicator: WP2 UVRA, Metabolic Activation: RAT, LIVER, S-9, KC 500) “inactive; negative”. Further, where the note is “Test System: E. COLI, Strain/Indicator: WP2 UVRA, Metabolic Activation: RAT, LIVER, S-9, KC 500, Method: PREINCUBATION”, the mutagenic call was “inactive; negative”.

For `COc1cc(N=Nc2ccccc2)ccc1N=Nc1c(S(=O)(=O)O)cc2ccc(N)cc2c1O`, the mutagenic call was “inactive; negative” under setting [1]; “active; positive” under setting [2]; “inactive; negative” under setting [3]; “active; positive” under setting [4]; “inactive; negative” under setting [5]; “active; positive” under setting [6].

As for `CC(Oc1ccc(Cl)cc1Cl)C(=O)O` (stereo not given), the mutagenic call was “inactive; negative” (Test System: AMES SALMONELLA TYPHIMURIUM, Strain/Indicator: TA97, Metabolic Activation: NONE, Method: STANDARD PLATE); “inactive; negative” (Test System: AMES SALMONELLA TYPHIMURIUM, Strain/Indicator: TA97, Metabolic Activation: RAT, LIVER, S-9, AROCLOR 1254, Method: STANDARD PLATE); “inactive; negative” under setting [1]; “inactive; negative” under setting [2]; “inactive; negative” under setting [3]; “inactive; negative” under setting [4]. The mutagenic call by setting is: (Test System: AMES SALMONELLA TYPHIMURIUM, Strain/Indicator: TA102, Metabolic Activation: NONE, Method: STANDARD PLATE) “inactive; negative”; (Test System: AMES SALMONELLA TYPHIMURIUM, Strain/Indicator: TA102, Metabolic Activation: RAT, LIVER, S-9, AROCLOR 1254, Method: STANDARD PLATE) “inactive; negative”.

As to `Fc1ccc2cccnc2c1`, the mutagenic call was “active; positive” (Test System: AMES SALMONELLA TYPHIMURIUM, Strain/Indicator: TA100, Metabolic Activation: RAT LIVER S-9, PHENOBARBITAL AND 5,6-BENZOFLAVONE, Method: PREINCUBATION); “active; positive” (Test System: AMES SALMONELLA TYPHIMURIUM, Strain/Indicator: TA100, Metabolic Activation: RAT, LIVER, S-9, AROCLOR 1254, Method: PREINCUBATION); “active; positive” (Test System: UDS RODENT HEPATOCYTES, Strain/Indicator: THY INCORP (NON-S-PHASE), Metabolic Activation: NONE, Method: AUTORADIOGRAPHY).

Turning to `CN(C=O)N=O`, the mutagenic call (Test System: AMES SALMONELLA TYPHIMURIUM, Strain/Indicator: TA1535, Metabolic Activation: NONE, Method: STANDARD PLATE) is “active; positive” and the mutagenic call (Test System: E. COLI, Strain/Indicator: WU3610, Metabolic Activation: NONE, Method: SUSPENSION/PLATE) is “active; positive”.

For `CC(C)c1cc(N)cc([N+](=O)[O-])c1N`, the mutagenic call by setting is: under setting [1], “inactive; negative”; under setting [2], “inactive; negative”; under setting [3], “inactive; negative”; under setting [4], “inactive; negative”; under setting [5], “inactive; negative”; under setting [6], “inactive; negative”.
